# Data reported in ChEMBL document CHEMBL1201862, “PubChem BioAssay data set” (2004).
# Values joined by “and” are separate entries in the source; they are usually repeats but may differ in a detail not shown here. Equal entries are not always repeated.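 Growth conditions: 96-well plates. Treatment: test compound, 48 hours, 5 concentrations. Analysis: linear interpolation between bracketing concentrations; unreached endpoints set to highest concentration. GI50 = concentration required for 50% inhibition of growth.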 Active and inactive are the calls of the source. No stated cut-off is given here; in the data, active = GI50 up to about 1.1 µM and inactive = higher.
# Key:
# Experiment in all cases: NCI tumour cell line growth inhibition, 48 h
# A498 = system: A498
# ACHN = system: ACHN
# CAKI-1 = system: CAKI-1
# CCRF-CEM = system: CCRF-CEM
# EKVX = system: EKVX
# LOX IMVI = system: LOX IMVI
# Malme-3M = system: Malme-3M
# NCI-H522 = system: NCI-H522
# OVCAR-8 = system: OVCAR-8
# RPMI-8226 = system: RPMI-8226
# RXF 393 = system: RXF 393
# SNB-19 = system: SNB-19
# TK-10 = system: TK-10
# U-251 = system: U-251
# UACC-62 = system: UACC-62
# Hs-578T = system: Hs-578T
# K562 = system: K562
# NCI/ADR-RES = system: NCI/ADR-RES
# T47D = system: T47D
# MDA-MB-231 = system: MDA-MB-231
Compound,GI50 (A498),GI50 (ACHN),GI50 (CAKI-1),GI50 (CCRF-CEM),GI50 (EKVX),GI50 (LOX IMVI),GI50 (Malme-3M),GI50 (NCI-H522),GI50 (OVCAR-8),GI50 (RPMI-8226),GI50 (RXF 393),GI50 (SNB-19),GI50 (TK-10),GI50 (U-251),GI50 (UACC-62),GI50 (Hs-578T),GI50 (K562),GI50 (NCI/ADR-RES),GI50 (T47D),GI50 (MDA-MB-231)
O[C@H]1[C@H]2[C@H](O)CCCN2C[C@H]1O [TRIDOLGOSIR],> 100 µM (inactive),> 100 µM (inactive),> 100 µM (inactive),85.3 µM (inactive),> 100 µM (inactive),> 100 µM (inactive),> 100 µM (inactive),> 100 µM (inactive),> 100 µM (inactive),> 100 µM (inactive),> 100 µM (inactive),> 100 µM (inactive),> 100 µM (inactive),> 100 µM (inactive),> 100 µM (inactive),–,–,–,–,–
Cc1ccc(-c2ccc(Nc3c4ccccc4nc4ccccc34)cc2)cn1,–,2.32 µM (inactive),2.72 µM (inactive),–,6.64 µM (inactive),2.71 µM (inactive),–,2.83 µM (inactive),4.81 µM (inactive),1.92 µM (inactive),–,5.86 µM (inactive),9.14 µM (inactive),–,3.08 µM (inactive),5 µM (inactive),3.66 µM (inactive),8.89 µM (inactive),2.17 µM (inactive),–
CCOC(=O)C(=Cc1cc(OC)ccc1OC)C(=O)OCC,14.4 µM (inactive),11.9 µM (inactive),13.6 µM (inactive),2.95 µM (inactive),10.6 µM (inactive),3.83 µM (inactive),10.9 µM (inactive),3.66 µM (inactive),4.72 µM (inactive),3.44 µM (inactive),1.83 µM (inactive),11.9 µM (inactive),> 10 µM (inactive),4.79 µM (inactive),1.83 µM (inactive),–,3.42 µM (inactive),–,–,–
COc1cc(/C=N/N=C(\N)NO)cc(Cl)c1O,34.4 µM (inactive),34.4 µM (inactive),26.9 µM (inactive),38.1 µM (inactive),30.9 µM (inactive),31 µM (inactive),55.2 µM (inactive),> 100 µM (inactive),65.6 µM (inactive),> 100 µM (inactive),11.5 µM (inactive),> 100 µM (inactive),–,48.9 µM (inactive),42.4 µM (inactive),–,53.2 µM (inactive),–,–,–
CC1(C)OC2OC(C(COS(=O)(=O)C(F)(F)F)N=[N+]=[N-])C(OC(=O)c3ccccc3)C2O1 (stereo not drawn),> 100 µM (inactive),> 100 µM (inactive),> 100 µM (inactive),> 100 µM (inactive),> 100 µM (inactive),> 100 µM (inactive),> 100 µM (inactive),–,> 100 µM (inactive),–,> 100 µM (inactive) and 59.3 µM (inactive),> 100 µM (inactive),> 100 µM (inactive),> 100 µM (inactive),> 100 µM (inactive),> 100 µM (inactive),> 100 µM (inactive),> 100 µM (inactive),–,> 100 µM (inactive)
O=C(CSSCC(=O)OCCS(=O)(=O)Nc1ccc(Br)cc1)OCCS(=O)(=O)Nc1ccc(Br)cc1,11.8 µM (inactive),18 µM (inactive),2.83 µM (inactive),7.66 µM (inactive),26.5 µM (inactive),7.18 µM (inactive),3.8 µM (inactive),6.53 µM (inactive),10.4 µM (inactive),10 µM (inactive),3.23 µM (inactive),32.8 µM (inactive),20.7 µM (inactive),21.7 µM (inactive),13 µM (inactive),–,10.4 µM (inactive),–,–,–
C#CC1(O)CCCCCCCCC2(CCCCCCCC1)OCCO2,14.7 µM (inactive),13.8 µM (inactive),12 µM (inactive),–,18.4 µM (inactive),22.1 µM (inactive),19.5 µM (inactive),2.56 µM (inactive),19.4 µM (inactive),0.414 µM (active),10.9 µM (inactive),18.9 µM (inactive),20.7 µM (inactive),17.1 µM (inactive),14.8 µM (inactive),17.8 µM (inactive),17.5 µM (inactive),18.1 µM (inactive),15.5 µM (inactive),–
COC(=O)C(=O)C(C(=O)C(=O)Nc1ccc(OC)cc1[N+](=O)[O-])c1nc2ccc([N+](=O)[O-])cc2nc1O (stereo not drawn),> 100 µM (inactive),> 100 µM (inactive),> 100 µM (inactive),> 100 µM (inactive),> 100 µM (inactive),> 100 µM (inactive),> 100 µM (inactive),> 100 µM (inactive),> 100 µM (inactive),> 100 µM (inactive),> 100 µM (inactive),> 100 µM (inactive),> 100 µM (inactive),> 100 µM (inactive),> 100 µM (inactive),–,> 100 µM (inactive),–,–,–
C=C1CC(CC)(CCN2C(=O)c3ccccc3C2=O)OC1=O (stereo not drawn),19.2 µM (inactive),14.9 µM (inactive),2.09 µM (inactive),7.71 µM (inactive),17 µM (inactive),14.2 µM (inactive),11.8 µM (inactive),3.48 µM (inactive),16.4 µM (inactive),22.7 µM (inactive),15.5 µM (inactive),> 10 µM (inactive),17.7 µM (inactive),> 10 µM (inactive),13.3 µM (inactive),–,20.8 µM (inactive),–,–,–
Fc1ccc(C2SCc3nc4ccccc4n32)cc1F (stereo not drawn),36.2 µM (inactive),30 µM (inactive),43.1 µM (inactive),34.1 µM (inactive),39.2 µM (inactive),–,25.9 µM (inactive),18.3 µM (inactive),33.8 µM (inactive),13.3 µM (inactive),24.2 µM (inactive),29.6 µM (inactive),26 µM (inactive),48.2 µM (inactive),20.7 µM (inactive),–,24.2 µM (inactive),–,–,–
COc1ccc2nc3c4c(nccc4c2c1)-c1ncccc1C3=O,0.0916 µM (active),0.0116 µM (active),0.109 µM (active),0.818 µM (active),0.132 µM (active),0.00982 µM (active),0.0791 µM (active),–,0.034 µM (active),0.0652 µM (active),0.119 µM (active),0.0656 µM (active),0.18 µM (active),0.0319 µM (active),0.048 µM (active),–,0.016 µM (active),0.201 µM (active),0.703 µM (active),0.494 µM (active)
CCCCN(CCCC)CC(C(=O)Nc1ccc([N+](=O)[O-])cc1[N+](=O)[O-])/C(C)=N\NC(=O)C[N+](C)(C)C (stereo not drawn),52.7 µM (inactive),> 100 µM (inactive),42.7 µM (inactive),41.8 µM (inactive),30.3 µM (inactive),33.3 µM (inactive),> 100 µM (inactive),41.9 µM (inactive),> 100 µM (inactive),27.7 µM (inactive),92.7 µM (inactive),> 100 µM (inactive),> 100 µM (inactive),> 100 µM (inactive),> 100 µM (inactive),–,28.8 µM (inactive),–,–,–
Cc1cc([N+](=O)[O-])ccc1NC(=O)C(=O)C(C(=O)c1ccccc1-c1ccccc1)C1OC(=O)c2ccccc21 (stereo not drawn),> 10 µM (inactive),31.3 µM (inactive),23.8 µM (inactive),22.9 µM (inactive),> 10 µM (inactive),–,13.1 µM (inactive),12.9 µM (inactive),20.8 µM (inactive),24 µM (inactive),4.85 µM (inactive),3.44 µM (inactive),17.8 µM (inactive),12.5 µM (inactive),4.11 µM (inactive),–,25.4 µM (inactive),–,–,–
CC(C)CCCCCCCCCCCCC(=O)NCC(=O)NC1C(C)OC(Nc2[nH]cnc3ncnc2-3)C(O)C1O (stereo not drawn),–,0.000468 µM (active),< 0.01 µM (active),0.0048 µM (active),0.00575 µM (active),0.000262 µM (active),0.000332 µM (active),0.00273 µM (active),0.000153 µM (active),0.000568 µM (active),< 0.01 µM (active),0.0021 µM (active),0.00102 µM (active),0.000425 µM (active),< 0.01 µM (active),–,0.00644 µM (active),0.00221 µM (active),0.00235 µM (active),< 0.01 µM (active)
COC(=O)CC1(O)C(C=C(C)C)C(C(=O)OC)C(=O)C(C(=O)OC)C1C(=O)OC (stereo not drawn),> 100 µM (inactive),> 100 µM (inactive),> 100 µM (inactive),> 100 µM (inactive),> 100 µM (inactive),> 100 µM (inactive),> 100 µM (inactive),> 100 µM (inactive),> 100 µM (inactive),> 100 µM (inactive),> 100 µM (inactive),> 100 µM (inactive),> 100 µM (inactive),> 100 µM (inactive),> 100 µM (inactive),> 100 µM (inactive),> 100 µM (inactive),38.5 µM (inactive),–,> 100 µM (inactive)
Cc1ccccc1-n1c(=O)sc2c(=O)n(-c3ccccc3)c(=S)[nH]c21,> 100 µM (inactive),> 100 µM (inactive),> 100 µM (inactive),47.3 µM (inactive),> 100 µM (inactive),–,> 100 µM (inactive),42.6 µM (inactive),> 100 µM (inactive),> 100 µM (inactive),> 100 µM (inactive),> 100 µM (inactive),–,> 100 µM (inactive),> 100 µM (inactive),–,> 100 µM (inactive),–,–,–
